# Data: paper PMC9133015 (Nature Communications, 2022)
# “And” between values parts separate entries of the source, which are not always exact repeats. Identical values can stand only once.
# Experiments:
# DU145 cells [1] = experiment: Anti-proliferation activity assay (CCK8, 72 h); assay type: cell-based, human; settings: DU145, replicates
# PC-3 cells [2] = experiment: Anti-proliferation activity assay (CCK8, 72 h); assay type: cell-based, human; settings: PC-3, replicates
# 22Rv1 cells [3] = experiment: Anti-proliferation activity assay (CCK8, 72 h); assay type: cell-based, human; settings: 22Rv1, replicates
# RWPE-1 cells = experiment: Anti-proliferation activity assay (CCK8, 72 h); assay type: cell-based; settings: RWPE1, replicates
# PC-3 cells [4] = experiment: Cell growth assay (5-day course); assay type: cell-based, human; settings: PC-3, 40 µM, replicates
# 22Rv1 cells [5] = experiment: Colony formation assay; assay type: cell-based, human; settings: 22Rv1, 20 μM, replicates
# DU145 cells [6] = experiment: Colony formation assay; assay type: cell-based, human; settings: DU145, 40 μM, replicates
# PC-3 cells [7] = experiment: Colony formation assay; assay type: cell-based, human; settings: 40 µM, replicates
# 22Rv1 cells [8] = experiment: Migration assay (transwell); assay type: cell-based, human; settings: 22Rv1, 20 μM, replicates
# DU145 cells [9] = experiment: Migration assay (transwell); assay type: cell-based, human; settings: DU145, 40 μM, replicates
# PC-3 cells [10] = experiment: Migration assay (transwell); assay type: cell-based, human; settings: PC-3; 40 µM; replicates
# DU145 cells [11] = experiment: Invasion assay (transwell); assay type: cell-based, human; settings: DU145, 40 μM, replicates
# PC-3 cells [12] = experiment: Invasion assay (transwell); assay type: cell-based, human; settings: PC-3; 40 µM; replicates
# 22Rv1 cells [13] = experiment: Invasion assay (transwell); assay type: cell-based, human; settings: 22Rv1, 20 μM, replicates
# 22Rv1 cells [14] = experiment: Apoptosis assay (Annexin V-APC/PI flow cytometry); assay type: cell-based, human; settings: 22Rv1, 20 μM, replicates
# DU145 cells [15] = experiment: Apoptosis assay (Annexin V-APC/PI flow cytometry); assay type: cell-based, human; settings: DU145, 40 μM, replicates
# PC-3 cells [16] = experiment: Apoptosis assay (Annexin V-APC/PI flow cytometry); assay type: cell-based, human; settings: PC-3; 40 µM; replicates
# 22Rv1 cells [17] = experiment: Cell cycle assay (PI flow cytometry); assay type: cell-based, human; settings: 22Rv1, 20 μM, replicates
# DU145 cells [18] = experiment: Cell cycle assay (PI flow cytometry); assay type: cell-based, human; settings: DU145, 40 μM, replicates
# PC-3 cells [19] = experiment: Cell cycle assay (PI flow cytometry); assay type: cell-based, human; settings: PC-3, 40 µM, replicates
# DU145 xenograft [20] = experiment: In vivo antitumor activity, DU145 xenograft mouse model; parameters: species or system BALB/c nude mice; settings: for Tumor volume (Fig. 7a): individual mice 1-10, in cm³ (unit assumed)
# DU145 xenograft [21] = experiment: H&E and Ki67 staining of xenograft tumor tissues; assay type: in vivo, BALB/c nude mice; settings: DU145, reference drug groups, replicates
compound,measurement,setting,value
CNC(=O)c1ccc(N2C(=S)N(c3ccc(C#N)c(C(F)(F)F)c3)C(=O)C2(C)C)cc1F [enzalutamide],optical density,DU145 cells [1]; 2.5 uM,1.167 and 1.145 and 1.124
same,optical density,DU145 cells [1]; 5 uM,1.127 and 1.118 and 1.073
same,optical density,DU145 cells [1]; 10 uM,1.073 and 1.05 and 1.035
same,optical density,DU145 cells [1]; 20 uM,0.93 and 0.926 and 0.882
same,optical density,DU145 cells [1]; 40 uM,0.602 and 0.626 and 0.546
same,optical density,DU145 cells [1]; 80 uM,0.325 and 0.374 and 0.256
same,optical density,PC-3 cells [2]; 2.5 uM,1.074 and 1.037 and 1.019
same,optical density,PC-3 cells [2]; 5 uM,1.05 and 1.004 and 0.976
same,optical density,PC-3 cells [2]; 10 uM,1.021 and 0.964 and 0.924
same,optical density,PC-3 cells [2]; 20 uM,0.935 and 0.906 and 0.894
same,optical density,PC-3 cells [2]; 40 uM,0.769 and 0.721 and 0.688
same,optical density,PC-3 cells [2]; 80 uM,0.516 and 0.456 and 0.403
same,optical density,22Rv1 cells [3]; 2.5 uM,0.81 and 0.838 and 0.791
same,optical density,22Rv1 cells [3]; 5 uM,0.775 and 0.808 and 0.759
same,optical density,22Rv1 cells [3]; 10 uM,0.619 and 0.678 and 0.623
same,optical density,22Rv1 cells [3]; 20 uM,0.455 and 0.528 and 0.472
same,optical density,22Rv1 cells [3]; 40 uM,0.22 and 0.347 and 0.272
same,optical density,22Rv1 cells [3]; 80 uM,0.191
same,optical density,RWPE-1 cells; 2.5 uM,0.992 and 1.025 and 0.996
same,optical density,RWPE-1 cells; 5 uM,0.949 and 0.989 and 0.956
same,optical density,RWPE-1 cells; 10 uM,0.858 and 0.962 and 0.898
same,optical density,RWPE-1 cells; 20 uM,0.786 and 0.838 and 0.802
same,optical density,RWPE-1 cells; 40 uM,0.517 and 0.686 and 0.593
same,optical density,RWPE-1 cells; 80 uM,0.393 and 0.433 and 0.408
same,optical density,PC-3 cells [4]; day 0,0.269
same,optical density,PC-3 cells [4]; day 1,0.288 and 0.29 and 0.285
same,optical density,PC-3 cells [4]; day 2,0.517 and 0.519 and 0.473
same,optical density,PC-3 cells [4]; day 3,0.701 and 0.705 and 0.6
same,optical density,PC-3 cells [4]; day 4,1.438 and 1.323 and 1.218
same,Colony formation (cell number),22Rv1 cells [5],560 cell number and 530 cell number and 570 cell number
same,Colony formation (cell number),DU145 cells [6],205 cell number and 218 cell number and 226 cell number
same,Colony formation (cell number),PC-3 cells [7],160 cell number and 145 cell number
same,Cell migration (cell number),22Rv1 cells [8],1459 cell number and 1378 cell number and 1390 cell number
same,Cell migration (cell number),DU145 cells [9],4002 cell number and 3988 cell number and 4105 cell number
same,Cell migration (cell number),PC-3 cells [10],1100 cell number and 1076 cell number and 923 cell number
same,Cell invasion (cell number),DU145 cells [11],1897 cell number and 1923 cell number and 1867 cell number
same,Cell invasion (cell number),PC-3 cells [12],2300 cell number and 2405 cell number and 2379 cell number
same,Cell invasion (cell number),22Rv1 cells [13],1680 cell number and 1543 cell number
same,Apoptosis (%),22Rv1 cells [14],4.36% and 5.45% and 6.23%
same,Apoptosis (%),DU145 cells [15],11.89% and 10.52% and 9.68%
same,Apoptosis (%),PC-3 cells [16],5.39% and 5.46% and 5.82%
same,Cell cycle percentages ( % ) G0/G1,22Rv1 cells [17],69.98% and 71.27% and 73.69%
same,Cell cycle percentages ( % ) G2/M,22Rv1 cells [17],14.06% and 12.61% and 11.06%
same,Cell cycle percentages ( % ) S,22Rv1 cells [17],15.96% and 16.12% and 15.25%
same,Cell cycle percentages ( % ) G0/G1,DU145 cells [18],57.27% and 58.94% and 59.05%
same,Cell cycle percentages ( % ) G2/M,DU145 cells [18],23.68% and 22.3% and 24.16%
same,Cell cycle percentages ( % ) S,DU145 cells [18],19.05% and 18.76% and 16.79%
same,Cell cycle percentages ( % ) G0/G1,PC-3 cells [19]; G0/G1,70.26% and 71.93% and 73.13%
same,Cell cycle percentages ( % ) G2/M,PC-3 cells [19]; G2/M,18.02% and 17.63% and 16.26%
same,Cell cycle percentages ( % ) S,PC-3 cells [19]; S,11.72% and 10.44% and 10.61%
same,antitumor activity (in words),"DU145 xenograft [20]; DU145 xenograft, 100 mg/kg orally once a day, seven weeks",only delayed the tumor growth
same,Tumor volume (Fig. 7a),DU145 xenograft [20]; Day 1,0.06831 and 0.0728 and 0.08842 and 0.07149 and 0.08267 and 0.0792 and 0.07365 and 0.09986 and 0.09475 and 0.08367
same,Tumor volume (Fig. 7a),DU145 xenograft [20]; Day 3,0.1054 and 0.1066 and 0.1367 and 0.1112 and 0.1273 and 0.1097 and 0.1065 and 0.1474 and 0.1553 and 0.1239
same,Tumor volume (Fig. 7a),DU145 xenograft [20]; Day 5,0.1354 and 0.1343 and 0.1923 and 0.144 and 0.1749 and 0.1417 and 0.1334 and 0.2305 and 0.2202 and 0.1878
same,Tumor volume (Fig. 7a),DU145 xenograft [20]; Day 7,0.1816 and 0.1822 and 0.2496 and 0.1945 and 0.234 and 0.2013 and 0.2322 and 0.3186 and 0.2993 and 0.2348
same,Tumor volume (Fig. 7a),DU145 xenograft [20]; Day 9,0.236 and 0.2398 and 0.2946 and 0.2457 and 0.337 and 0.2675 and 0.2935 and 0.3821 and 0.38 and 0.3125
same,Tumor volume (Fig. 7a),DU145 xenograft [20]; Day 11,0.2749 and 0.3065 and 0.4056 and 0.2756 and 0.3984 and 0.3105 and 0.3205 and 0.5039 and 0.4644 and 0.382
same,Tumor volume (Fig. 7a),DU145 xenograft [20]; Day 13,0.3292 and 0.3636 and 0.3775 and 0.3177 and 0.4798 and 0.3714 and 0.3893 and 0.5706 and 0.5218 and 0.4116
same,Tumor volume (Fig. 7a),DU145 xenograft [20]; Day 15,0.4104 and 0.4397 and 0.4958 and 0.3678 and 0.5629 and 0.4479 and 0.4493 and 0.6357 and 0.6164 and 0.4936
same,Tumor volume (Fig. 7a),DU145 xenograft [20]; Day 17,0.473 and 0.4645 and 0.5899 and 0.4301 and 0.6355 and 0.511 and 0.4922 and 0.7115 and 0.6607 and 0.5477
same,Tumor volume (Fig. 7a),DU145 xenograft [20]; Day 19,0.458 and 0.4883 and 0.6303 and 0.4489 and 0.6566 and 0.5391 and 0.5247 and 0.7614 and 0.6322 and 0.6372
same,Tumor weight (Fig. 7c),"DU145 xenograft [20]; reference drug groups, individual mice, in g (unit assumed)",1.15 and 1.34 and 1.28 and 1.42 and 1.33 and 1.5 and 1.37 and 1.08 and 1.22 and 1.16
same,Positive rate ( % ) (Fig. 7f),DU145 xenograft [21],30.71% and 31.3% and 29.1%
